This note sets out measurements from ChEMBL document CHEMBL5653615 (J Biol Chem, 2013).

Test [1] has as its target Focal adhesion kinase 1 (Homo sapiens) (UniProt Q05397). Nature of the test: Inhibition of human FAK at 18.6 nM by HotSpot assay relative to control.
For test [2], the target named is T1, Inhibitor of nuclear factor kappa-B kinase subunit beta (Homo sapiens) (UniProt O14920).
T1 sequence (whole entry): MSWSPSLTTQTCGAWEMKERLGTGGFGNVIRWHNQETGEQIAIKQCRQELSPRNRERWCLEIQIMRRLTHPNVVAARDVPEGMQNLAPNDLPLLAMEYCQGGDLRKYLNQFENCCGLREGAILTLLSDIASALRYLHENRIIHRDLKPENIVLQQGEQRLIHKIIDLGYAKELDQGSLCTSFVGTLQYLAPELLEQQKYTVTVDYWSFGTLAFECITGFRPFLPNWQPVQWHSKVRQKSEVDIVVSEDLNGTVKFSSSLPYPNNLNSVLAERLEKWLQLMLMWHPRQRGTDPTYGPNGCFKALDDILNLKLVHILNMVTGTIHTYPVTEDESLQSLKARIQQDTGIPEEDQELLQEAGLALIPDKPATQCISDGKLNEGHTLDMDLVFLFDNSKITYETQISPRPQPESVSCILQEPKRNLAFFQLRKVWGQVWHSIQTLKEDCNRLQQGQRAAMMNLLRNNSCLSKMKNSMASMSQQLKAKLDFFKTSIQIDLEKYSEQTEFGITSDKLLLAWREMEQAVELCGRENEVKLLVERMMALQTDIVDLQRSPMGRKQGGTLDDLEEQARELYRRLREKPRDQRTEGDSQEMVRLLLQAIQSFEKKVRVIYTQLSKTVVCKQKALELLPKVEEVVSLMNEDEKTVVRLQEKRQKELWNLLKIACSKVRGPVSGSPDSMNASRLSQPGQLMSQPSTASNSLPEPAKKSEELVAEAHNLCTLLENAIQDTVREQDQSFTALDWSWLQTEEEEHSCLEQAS
Nature of the test: Inhibition of human IKKb at 18.6 nM by HotSpot assay relative to control.

The target in test [3] is Mitogen-activated protein kinase kinase kinase kinase 5 (Homo sapiens) (UniProt Q9Y4K4). Nature of the test: Inhibition of human KHS at 18.6 nM by HotSpot assay relative to control.
In test [4] the target is Mitogen-activated protein kinase kinase kinase 10 (Homo sapiens) (UniProt Q02779). Nature of the test: Inhibition of human MAP3K10 at 18.6 nM by HotSpot assay relative to control.
Test [5] addresses Tyrosine-protein kinase Srms (Homo sapiens) (UniProt Q9H3Y6). The experiment in a line: Inhibition of human SRMS at 18.6 nM by HotSpot assay relative to control.
Test [6] concerns the target T2, cGMP-dependent protein kinase 2 (Homo sapiens) (UniProt Q13237).
T2 sequence (whole entry): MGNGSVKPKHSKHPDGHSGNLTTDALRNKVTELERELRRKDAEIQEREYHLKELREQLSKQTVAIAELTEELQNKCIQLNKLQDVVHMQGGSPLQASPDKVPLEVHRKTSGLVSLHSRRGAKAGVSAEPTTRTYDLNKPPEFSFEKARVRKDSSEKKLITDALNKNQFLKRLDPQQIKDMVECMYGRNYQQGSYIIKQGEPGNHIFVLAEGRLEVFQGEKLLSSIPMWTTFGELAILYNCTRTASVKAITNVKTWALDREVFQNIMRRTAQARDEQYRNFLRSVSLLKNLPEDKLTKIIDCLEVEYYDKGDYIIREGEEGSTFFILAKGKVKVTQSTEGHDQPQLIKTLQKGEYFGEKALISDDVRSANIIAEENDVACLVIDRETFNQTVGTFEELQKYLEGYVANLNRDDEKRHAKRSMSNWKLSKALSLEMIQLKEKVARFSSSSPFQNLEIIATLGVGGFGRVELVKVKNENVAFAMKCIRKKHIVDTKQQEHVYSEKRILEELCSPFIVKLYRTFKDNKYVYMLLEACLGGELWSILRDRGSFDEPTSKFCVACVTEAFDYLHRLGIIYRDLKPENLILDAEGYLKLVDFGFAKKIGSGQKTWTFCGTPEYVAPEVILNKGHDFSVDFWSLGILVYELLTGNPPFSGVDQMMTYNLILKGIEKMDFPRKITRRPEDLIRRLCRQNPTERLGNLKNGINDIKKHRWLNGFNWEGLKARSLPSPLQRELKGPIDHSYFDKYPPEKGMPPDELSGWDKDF
The experiment in a line: Inhibition of human PRKG2 at 1.82 nM by HotSpot assay relative to control.

For test [7], the target named is T3, Serine/threonine-protein kinase TBK1 (Homo sapiens) (UniProt Q9UHD2).
T3 sequence (whole entry): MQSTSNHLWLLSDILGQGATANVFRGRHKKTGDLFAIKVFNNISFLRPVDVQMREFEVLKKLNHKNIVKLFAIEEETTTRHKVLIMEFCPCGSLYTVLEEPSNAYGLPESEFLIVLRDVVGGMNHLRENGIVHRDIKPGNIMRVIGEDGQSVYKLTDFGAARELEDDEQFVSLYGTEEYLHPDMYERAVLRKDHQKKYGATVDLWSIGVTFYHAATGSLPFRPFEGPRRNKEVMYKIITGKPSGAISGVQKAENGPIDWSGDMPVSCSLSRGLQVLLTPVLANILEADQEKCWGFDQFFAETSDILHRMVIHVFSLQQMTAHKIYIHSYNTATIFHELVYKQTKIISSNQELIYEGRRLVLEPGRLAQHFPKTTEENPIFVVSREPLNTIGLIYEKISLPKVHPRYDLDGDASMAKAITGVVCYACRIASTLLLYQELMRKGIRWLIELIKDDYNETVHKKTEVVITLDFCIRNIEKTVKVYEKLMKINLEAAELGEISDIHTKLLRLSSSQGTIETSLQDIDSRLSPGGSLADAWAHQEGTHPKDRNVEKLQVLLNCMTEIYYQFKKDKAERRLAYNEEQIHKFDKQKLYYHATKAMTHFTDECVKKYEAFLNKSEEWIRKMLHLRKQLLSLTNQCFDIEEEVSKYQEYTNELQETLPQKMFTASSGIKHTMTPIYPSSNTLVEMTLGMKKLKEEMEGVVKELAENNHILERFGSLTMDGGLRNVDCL
The experiment in a line: Inhibition of human TBK1 at 1.82 nM by HotSpot assay relative to control.

Chain of Mitogen-activated protein kinase kinase kinase 10 (Homo sapiens) (Q02779 whole entry, looked up): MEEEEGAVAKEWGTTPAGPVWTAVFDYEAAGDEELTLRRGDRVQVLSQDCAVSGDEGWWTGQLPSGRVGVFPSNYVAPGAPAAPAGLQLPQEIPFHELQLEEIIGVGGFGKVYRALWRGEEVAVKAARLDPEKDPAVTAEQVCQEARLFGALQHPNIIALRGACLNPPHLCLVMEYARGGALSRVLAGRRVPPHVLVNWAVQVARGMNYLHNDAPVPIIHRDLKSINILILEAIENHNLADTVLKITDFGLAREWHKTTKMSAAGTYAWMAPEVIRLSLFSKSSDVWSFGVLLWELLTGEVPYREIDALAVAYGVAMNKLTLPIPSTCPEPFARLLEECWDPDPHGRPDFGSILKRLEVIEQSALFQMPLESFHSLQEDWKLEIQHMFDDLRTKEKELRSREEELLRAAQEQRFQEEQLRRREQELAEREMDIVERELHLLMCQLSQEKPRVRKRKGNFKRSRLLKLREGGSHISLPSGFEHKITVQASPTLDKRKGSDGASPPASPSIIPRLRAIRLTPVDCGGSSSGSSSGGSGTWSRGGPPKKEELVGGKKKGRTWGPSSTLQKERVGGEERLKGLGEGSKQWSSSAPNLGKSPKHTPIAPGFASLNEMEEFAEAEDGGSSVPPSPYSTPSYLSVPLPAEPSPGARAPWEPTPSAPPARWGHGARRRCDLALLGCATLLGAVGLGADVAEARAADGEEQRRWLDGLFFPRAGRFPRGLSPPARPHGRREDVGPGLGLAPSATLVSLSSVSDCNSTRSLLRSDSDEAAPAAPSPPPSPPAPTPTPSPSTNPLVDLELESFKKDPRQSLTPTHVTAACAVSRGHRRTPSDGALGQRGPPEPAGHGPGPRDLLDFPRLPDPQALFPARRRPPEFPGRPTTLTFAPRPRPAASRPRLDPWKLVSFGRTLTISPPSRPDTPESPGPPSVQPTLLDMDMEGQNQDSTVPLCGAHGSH
Chain of Focal adhesion kinase 1 (Homo sapiens) (Q05397 2-1052 limits assumed): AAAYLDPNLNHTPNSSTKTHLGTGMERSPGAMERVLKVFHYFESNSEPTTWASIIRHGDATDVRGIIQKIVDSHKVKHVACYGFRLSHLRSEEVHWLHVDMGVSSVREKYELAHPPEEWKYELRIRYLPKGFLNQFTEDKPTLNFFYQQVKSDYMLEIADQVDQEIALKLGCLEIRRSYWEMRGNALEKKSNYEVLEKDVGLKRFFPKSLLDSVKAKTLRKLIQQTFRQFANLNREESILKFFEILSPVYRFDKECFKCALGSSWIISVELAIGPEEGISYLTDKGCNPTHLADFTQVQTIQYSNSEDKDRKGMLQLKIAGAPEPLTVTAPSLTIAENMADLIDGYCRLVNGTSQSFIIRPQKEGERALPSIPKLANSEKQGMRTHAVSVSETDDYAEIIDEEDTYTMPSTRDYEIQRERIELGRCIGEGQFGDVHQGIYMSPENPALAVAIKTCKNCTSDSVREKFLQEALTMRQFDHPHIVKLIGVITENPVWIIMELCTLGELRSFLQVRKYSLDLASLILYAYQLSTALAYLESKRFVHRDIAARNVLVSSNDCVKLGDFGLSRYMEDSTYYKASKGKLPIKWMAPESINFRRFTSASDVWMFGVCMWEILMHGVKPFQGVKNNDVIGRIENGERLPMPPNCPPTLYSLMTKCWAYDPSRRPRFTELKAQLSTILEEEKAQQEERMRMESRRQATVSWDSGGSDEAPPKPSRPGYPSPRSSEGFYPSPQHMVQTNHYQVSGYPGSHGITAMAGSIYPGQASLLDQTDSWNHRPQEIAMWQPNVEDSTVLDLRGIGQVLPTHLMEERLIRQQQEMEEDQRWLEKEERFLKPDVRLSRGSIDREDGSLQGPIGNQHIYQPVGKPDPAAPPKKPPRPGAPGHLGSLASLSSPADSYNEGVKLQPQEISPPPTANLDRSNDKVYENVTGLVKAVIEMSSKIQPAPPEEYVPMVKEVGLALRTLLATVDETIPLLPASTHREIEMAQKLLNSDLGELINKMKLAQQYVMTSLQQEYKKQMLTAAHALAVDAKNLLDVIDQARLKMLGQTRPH
Chain of Tyrosine-protein kinase Srms (Homo sapiens) (Q9H3Y6 whole entry): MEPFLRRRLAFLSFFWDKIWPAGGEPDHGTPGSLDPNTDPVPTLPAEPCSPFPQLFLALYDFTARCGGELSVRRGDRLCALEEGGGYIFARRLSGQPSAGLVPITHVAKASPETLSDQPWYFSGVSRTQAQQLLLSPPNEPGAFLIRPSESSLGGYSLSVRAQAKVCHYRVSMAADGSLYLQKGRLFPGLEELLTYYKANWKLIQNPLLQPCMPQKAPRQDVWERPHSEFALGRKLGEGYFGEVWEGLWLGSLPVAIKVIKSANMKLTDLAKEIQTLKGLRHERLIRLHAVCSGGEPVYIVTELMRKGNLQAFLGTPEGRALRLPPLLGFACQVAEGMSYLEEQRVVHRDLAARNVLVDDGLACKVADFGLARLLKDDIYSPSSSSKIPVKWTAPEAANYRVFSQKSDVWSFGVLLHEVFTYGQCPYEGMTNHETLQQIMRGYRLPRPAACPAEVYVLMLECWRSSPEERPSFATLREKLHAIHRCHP
Chain of Mitogen-activated protein kinase kinase kinase kinase 5 (Homo sapiens) (Q9Y4K4 whole entry, looked up): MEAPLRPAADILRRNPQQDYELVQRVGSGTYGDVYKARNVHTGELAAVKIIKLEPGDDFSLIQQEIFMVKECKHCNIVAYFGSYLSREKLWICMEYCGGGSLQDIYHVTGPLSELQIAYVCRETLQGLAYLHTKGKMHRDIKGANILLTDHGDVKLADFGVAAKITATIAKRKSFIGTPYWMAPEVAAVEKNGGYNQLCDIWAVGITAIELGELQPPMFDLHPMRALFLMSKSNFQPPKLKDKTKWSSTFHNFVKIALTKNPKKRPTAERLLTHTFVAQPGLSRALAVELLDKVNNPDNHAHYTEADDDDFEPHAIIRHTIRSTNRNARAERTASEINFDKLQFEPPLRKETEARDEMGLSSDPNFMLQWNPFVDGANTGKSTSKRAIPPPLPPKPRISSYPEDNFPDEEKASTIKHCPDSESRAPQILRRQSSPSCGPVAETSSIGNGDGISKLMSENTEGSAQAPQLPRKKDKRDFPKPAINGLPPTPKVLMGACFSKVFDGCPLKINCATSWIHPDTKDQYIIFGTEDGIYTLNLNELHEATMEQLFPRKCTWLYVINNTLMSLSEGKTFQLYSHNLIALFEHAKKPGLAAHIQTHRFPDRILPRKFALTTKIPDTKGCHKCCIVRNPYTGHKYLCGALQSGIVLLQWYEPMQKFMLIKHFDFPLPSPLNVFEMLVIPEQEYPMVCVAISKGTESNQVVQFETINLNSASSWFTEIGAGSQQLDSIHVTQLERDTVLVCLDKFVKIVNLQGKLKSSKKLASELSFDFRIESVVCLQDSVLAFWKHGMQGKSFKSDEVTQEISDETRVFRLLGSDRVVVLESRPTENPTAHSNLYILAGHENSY

Consider `C[C@]1(O)C[C@@H](c2nc(-c3ccc4ccc(-c5ccccc5)nc4c3)c3c(N)nccn32)C1`, for which the inhibition in test [1] was 1.73%; in test [2] it was -2.87%; in test [3], 12.1%; in test [4], -0.06%; in test [5] it was -0.53%.
As for `C[C@@]1(C(=O)Nc2ccc(F)nc2)CCCN1c1nc(Nc2cc(C3CC3)n[nH]2)c2cccn2n1`, the inhibition in test [6] was -0.02%; in test [7], 7.68%.

What is called inhibition is the change of the read-out against control, counted positive when it falls.
